According to patent US7858635B2 (priority 2005, dated 2010):

Legend:
M1 muscarinic receptor = molecular target: T1, M1 muscarinic receptor (Homo sapiens, UniProt P11229); test: Functional mobilization of intracellular calcium (FLIPR, Fluo-3), M1-CHO cells; assay type: cell-based; conditions: compound nos. 1-454; for Emax: read-out: M1 Efficacy; for M1 Activity: M1-CHO cells, calcium mobilization
T1 construct: expressed in transfected cells; host or cells: CHO cells (M1-CHO, under zeocin and G418 selection)
T1 sequence (P11229 1-460): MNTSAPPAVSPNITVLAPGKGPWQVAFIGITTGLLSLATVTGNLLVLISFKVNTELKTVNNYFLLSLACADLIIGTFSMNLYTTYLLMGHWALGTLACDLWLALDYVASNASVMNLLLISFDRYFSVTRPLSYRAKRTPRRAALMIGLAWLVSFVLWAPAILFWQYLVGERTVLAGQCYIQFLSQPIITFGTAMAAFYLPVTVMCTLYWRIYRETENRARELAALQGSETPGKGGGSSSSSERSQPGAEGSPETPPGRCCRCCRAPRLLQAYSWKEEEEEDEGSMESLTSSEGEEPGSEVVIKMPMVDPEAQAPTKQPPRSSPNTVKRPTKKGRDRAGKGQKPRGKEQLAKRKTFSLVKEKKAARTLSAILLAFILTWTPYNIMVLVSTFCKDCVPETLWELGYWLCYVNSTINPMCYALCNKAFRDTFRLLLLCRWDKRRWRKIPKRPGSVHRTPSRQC
Description: (§1) CHO cells expressing muscarinic receptors (M1 to M5) are grown as monolayers in tissue culture flasks at 37° C. in a humidified atmosphere containing 5% CO2 and passaged every 3-5 days. The growth media is Dulbecco's modified eagles medium (DMEM, Gibco Cat#12430-054), containing 25 mM Hepes and supplemented with Fetal Bovine Serum (Hyclone, cat# SH30071.03), 0.1 mM of MEM non-essential amino acids (GIBCO, Cat# 11140-050), 1 mM MEM Sodium Pyruvate (GIBCO Cat# 11360-070) and 100 units/ml of Penicillin G and 100 μg/ml of Streptomycin (GIBCO Cat# 15140-122). The recombinant muscarinic receptor cell lines are grown under antibiotic pressure with media containing 25 μm/ml zeocin and 500 μg/ml G418 (M1-CHO), 4 μg/ml puromycin, 50 μg/ml zeocin and 2.5 μm/ml blasticidin (M2 and M4-CHO) or 50 μg/ml zeocin and 4 μg/ml puromycin (M3 and M5-CHO).
(§2) Cells are harvested at 80-90% confluence using Versene (GIBCO Cat# 15040-066), collected by centrifugation and seeded 18-24 hrs prior to running the calcium assay at a density of 5,000-10,000 cells/well in […], clear-bottomed 384-well plates (BD Biocoat, poly-D-lysine, Cat#356663). The day of the experiment, the cells are washed with a plate washer (Bioteck Instruments, ELX 405) using bath1 buffer (140-mM NaCl, 4.5-mM KCL, 2-mM CaCl2, 1-mM MgCl2, 10-mM Hepes-Na, 10-mM Glucose, pH 7.4, with NaOH) containing 1 mM Probenecid. Next, the calcium dye Fluo-3 (25 μl/well of Fluo-3 μM at 4 μM, Molecular Probes F-1241, in Bath 1 buffer containing 1 mM Probenecid) is added to the 25 μl of Bath 1 remaining in each well after the plate wash and the dye is loaded at 37° C. in the tissue culture incubator for 60-90 min. The fluorescent dye is removed using the plate washer with Bath 1 containing 1 mM Probenecid, leaving 25 μl/well of this solution after the wash. Alternatively, cells can be loaded with the calcium indicator from Molecular Devices (Calcium 3 Assay Reagents, Cat # R7181) adding 5 μl of a 5× solution dye in Bath 1 containing 1 mM Probenecid (10 ml per dye flask cat# R7182 to generate a solution 20×) to 20 μl of the same buffer. After loading for 60 min, the experiment can be run without having to remove the dye.
(§3) Compounds are prepared at a 2× fold concentration in a 96-well plate (round bottom, Costar Corning cat# 3656), by reconstituting the pre-spotted compounds in bath 1 containing 1 mM probenecid. The final concentration DMSO is 0.5%, and the amount of DMSO is normalized across the assay plate. To determine an agonist action of the compounds on muscarinic receptors, the reconstituted compounds are added (25 μl compound/well) to the cell assay plate (containing 25 μl/well) using the multi-channel robotic system of the FLIPR 3 Instrument (Molecular Devices, Sunnyvale, Calif.). To determine a functional inhibitory action of the compounds on muscarinic receptors, the reconstituted compounds are added (25 μl compound/well) to the assay plate and pre-incubated for 15 min prior to adding 25 μl of Carbachol at 3× the EC80 for each muscarinic subtype. Alternatively, the compounds can be co-applied simultaneously with the agonist. In both assay modes, the fluorescence is recorded for 60 sec (excitation wavelength is […] and emission wavelength 540 nm) using the FLIPR 3 instrument.
(§4) The potency, efficacy and selectivity of the muscarinic compounds were evaluated by screening the compound activity across the whole family (M1 to M5 cells). Compounds were also screened for activity on other proteins such as other GPCRs and ion channels to determine selectivity on M4 receptors.

M4 muscarinic receptor = molecular target: T2, M4 muscarinic receptor (Homo sapiens, UniProt P08173); test: Functional mobilization of intracellular calcium (FLIPR, Fluo-3), M4-CHO cells; assay type: cell-based; conditions: compound nos. 1-454; for Emax: read-out: M4 Efficacy; for M4 Activity: M4-CHO cells, calcium mobilization
T2 construct: expressed in transfected cells; host or cells: CHO cells (M4-CHO, under puromycin, zeocin and blasticidin selection)
T2 sequence (P08173 1-479): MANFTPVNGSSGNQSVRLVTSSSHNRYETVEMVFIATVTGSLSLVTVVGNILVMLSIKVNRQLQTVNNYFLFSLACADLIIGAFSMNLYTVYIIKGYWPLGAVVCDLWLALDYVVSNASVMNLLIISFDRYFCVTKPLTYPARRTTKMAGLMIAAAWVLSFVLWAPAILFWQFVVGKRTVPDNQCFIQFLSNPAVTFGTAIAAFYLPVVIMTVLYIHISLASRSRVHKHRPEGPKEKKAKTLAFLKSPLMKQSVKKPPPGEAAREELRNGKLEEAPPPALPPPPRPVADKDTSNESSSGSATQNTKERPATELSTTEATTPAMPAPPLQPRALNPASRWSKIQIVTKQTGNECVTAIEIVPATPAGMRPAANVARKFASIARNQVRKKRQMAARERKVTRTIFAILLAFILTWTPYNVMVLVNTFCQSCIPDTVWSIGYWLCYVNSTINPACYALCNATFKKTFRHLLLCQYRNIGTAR
Description: as §1, §2, §3, §4

[1] = 100% efficacy is the maximum response obtained with the Carbachol control

| Structure (SMILES) | Emax (M1 muscarinic receptor; [1]) [%] | M1 Activity (M1 muscarinic receptor) | Emax (M4 muscarinic receptor; [1]) [%] | M4 Activity (M4 muscarinic receptor) | M1 Efficacy (M1 muscarinic receptor; [1]) | M4 Efficacy (M4 muscarinic receptor; [1]) |
| --- | --- | --- | --- | --- | --- | --- |
| CCOC(=O)N1CCC(N2CCC3(CC2)CNc2ccc(Cl)cc23)CC1 [compound 19] | 65 to 85 | +++ (activity was measured to be less than or equal to 0.7 μM) | 55 to 70 | ++ (activity was measured to be between 0.1 μM and 4.0 μM) | – | – |
| CCOC(=O)N1CCC(CN2CCC3(CC2)CN(C(C)=O)c2ccc(OC(F)(F)F)cc23)CC1 [compound 21] | < 65 | ++ (activity was measured to be between 0.7 μM and 3.0 μM) | < 55 | + (activity was measured to be greater than or equal to 4.0 μM) | – | – |
| CCOC(=O)N1CCC(N2CCC3(CC2)CN(C(=O)N2CCCC2)c2ccc(F)cc23)CC1 [compound 22] | 65 to 85 | +++ (activity was measured to be less than or equal to 0.7 μM) | < 55 | + (activity was measured to be greater than or equal to 4.0 μM) | – | – |
| Cc1ccc2c(c1)C1(CCN([C@@H]3C[C@@H]4CC[C@@H]3C4)CC1)CN2 [compound 23] | – | ++ (activity was measured to be between 0.7 μM and 3.0 μM) | – | + (activity was measured to be greater than or equal to 4.0 μM) | + (efficacy was calculated to be 65% or less) | + (efficacy was calculated to be 55% or less) |
| Cc1cc(C(=O)N2CC3(CCN(C4CC5CCC(C4)N5C(=O)OC(C)C)CC3)c3cc(F)ccc32)nn1C (stereo not drawn) [compound 24] | < 65 | ++ (activity was measured to be between 0.7 μM and 3.0 μM) | < 55 | + (activity was measured to be greater than or equal to 4.0 μM) | – | – |
| COCCOC(=O)N1CCC(CN2CCC3(CC2)CN(C(C)=O)c2ccc(F)cc23)CC1 [compound 26] | 65 to 85 | +++ (activity was measured to be less than or equal to 0.7 μM) | < 55 | ++ (activity was measured to be between 0.1 μM and 4.0 μM) | – | – |
| CCC1CCC(N2CCC3(CC2)CN(C(C)=O)c2ccc(F)cc23)CC1 (stereo not drawn) [compound 27] | 65 to 85 | +++ (activity was measured to be less than or equal to 0.7 μM) | 55 to 70 | +++ (activity was measured to be less than or equal to 0.1 μM) | – | – |
| CCOC(=O)N1C2CCC1CC(N1CCC3(CC1)CN(C(=O)O[C@@H]1CCOC1)c1ccc(F)cc13)C2 (stereo partly drawn) [compound 28] | > 85 | +++ (activity was measured to be less than or equal to 0.7 μM) | 55 to 70 | ++ (activity was measured to be between 0.1 μM and 4.0 μM) | – | – |
| CC(=O)N[C@H]1CC2(CCN(CC3CC4CCC3CC4)CC2)c2ccccc21 (stereo partly drawn) [compound 29] | > 85 | +++ (activity was measured to be less than or equal to 0.7 μM) | > 70 | +++ (activity was measured to be less than or equal to 0.1 μM) | – | – |
| CCOC(=O)N1CCC(N2CCC3(CC2)CN(C(=O)OCC(C)C)c2ccc(F)cc23)CC1 [compound 30] | > 85 | +++ (activity was measured to be less than or equal to 0.7 μM) | > 70 | +++ (activity was measured to be less than or equal to 0.1 μM) | – | – |
| CCOC(=O)N1CCC(N2CCC3(CC2)C(=O)N(C)c2ccccc23)CC1 [compound 31] | > 85 | +++ (activity was measured to be less than or equal to 0.7 μM) | 55 to 70 | +++ (activity was measured to be less than or equal to 0.1 μM) | – | – |
| CN(C)C(=O)N1CC2(CCN(C3CC4CCC(C3)N4C(=O)OCCF)CC2)c2cc(F)ccc21 (stereo not drawn) [compound 32] | > 85 | +++ (activity was measured to be less than or equal to 0.7 μM) | 55 to 70 | +++ (activity was measured to be less than or equal to 0.1 μM) | – | – |
| COCCOC(=O)N1C2CCC1CC(N1CCC3(CC1)CN(C(=O)OC)c1ccc(F)cc13)C2 (stereo not drawn) [compound 33] | > 85 | +++ (activity was measured to be less than or equal to 0.7 μM) | > 70 | +++ (activity was measured to be less than or equal to 0.1 μM) | – | – |
| CC(=O)N1CC2(CCN(C3CC4CCC(C4)C3)CC2)c2cc(F)ccc21 (stereo not drawn) [compound 35] | > 85 | +++ (activity was measured to be less than or equal to 0.7 μM) | > 70 | ++ (activity was measured to be between 0.1 μM and 4.0 μM) | – | – |
| CCCOC(=O)N1CCC(CN2CCC3(CC2)C[C@H](NC(C)=O)c2ccccc23)CC1 [compound 36] | 65 to 85 | +++ (activity was measured to be less than or equal to 0.7 μM) | > 70 | ++ (activity was measured to be between 0.1 μM and 4.0 μM) | – | – |
| Clc1ccc2c(c1)C1(CCN(C3CCOCC3)CC1)CN2 [compound 37] | 65 to 85 | +++ (activity was measured to be less than or equal to 0.7 μM) | > 70 | ++ (activity was measured to be between 0.1 μM and 4.0 μM) | – | – |
| CCOC(=O)N1CCC(N2CCC3(CC2)CN(C(=O)OCCOC)c2ccc(F)cc23)CC1 [compound 38] | > 85 | +++ (activity was measured to be less than or equal to 0.7 μM) | > 70 | +++ (activity was measured to be less than or equal to 0.1 μM) | – | – |
| CCOC(=O)N1CCC(N2CCC3(CC2)CN(C(=O)N(C)C)c2ccc(F)cc23)CC1 [compound 39] | 65 to 85 | +++ (activity was measured to be less than or equal to 0.7 μM) | > 70 | ++ (activity was measured to be between 0.1 μM and 4.0 μM) | – | – |
